# Test results: ChEMBL document CHEMBL3046356, “Synthesis and anticholinesterase activity of fumaramide derivatives” (Med Chem Res, 2013)
# Calls of active or inactive are those of the source. No cut-off for these calls is given here.
# Columns and labels:
# [1] = target: Acetylcholinesterase (Electrophorus electricus) (UniProt O42275); assay: Inhibition of Electrophorus electricus (electric eel) AChE using acetylthiocholine iodide as substrate at 10 mg/ml by TLC-B assay
# Cholinesterase = Cholinesterase (Equus caballus, UniProt P81908); assay: Inhibition of BCHE in Equus caballus (horse) serum using butyrylthiocholine iodide as substrate preincubated with enzyme for 15 min prior to substrate addition measured every 45 s by colorimetric Ellman's method
# Acetylcholinesterase = Acetylcholinesterase (Electrophorus electricus, UniProt O42275); assay: Inhibition of Electrophorus electricus (electric eel) AChE using acetylthiocholine iodide as substrate preincubated with enzyme for 15 min prior to substrate addition measured every 45 s by colorimetric Ellman's method
# [2] = target: Acetylcholinesterase (Electrophorus electricus) (UniProt O42275); assay: Non-competitive inhibition of Electrophorus electricus (electric eel) AChE assessed as decrease in Vmax with unchanged Km using acetylthiocholine iodide as substrate by Lineweaver-burk plot analysis
# [3] = target: Cholinesterase (Equus caballus) (UniProt P81908); assay: Non-competitive inhibition of BCHE in Equus caballus (horse) serum assessed as decrease in Vmax with unchanged Km using butyrylthiocholine iodide as substrate by Lineweaver-burk plot analysis
# Chain of Cholinesterase (Equus caballus) (P81908 whole entry): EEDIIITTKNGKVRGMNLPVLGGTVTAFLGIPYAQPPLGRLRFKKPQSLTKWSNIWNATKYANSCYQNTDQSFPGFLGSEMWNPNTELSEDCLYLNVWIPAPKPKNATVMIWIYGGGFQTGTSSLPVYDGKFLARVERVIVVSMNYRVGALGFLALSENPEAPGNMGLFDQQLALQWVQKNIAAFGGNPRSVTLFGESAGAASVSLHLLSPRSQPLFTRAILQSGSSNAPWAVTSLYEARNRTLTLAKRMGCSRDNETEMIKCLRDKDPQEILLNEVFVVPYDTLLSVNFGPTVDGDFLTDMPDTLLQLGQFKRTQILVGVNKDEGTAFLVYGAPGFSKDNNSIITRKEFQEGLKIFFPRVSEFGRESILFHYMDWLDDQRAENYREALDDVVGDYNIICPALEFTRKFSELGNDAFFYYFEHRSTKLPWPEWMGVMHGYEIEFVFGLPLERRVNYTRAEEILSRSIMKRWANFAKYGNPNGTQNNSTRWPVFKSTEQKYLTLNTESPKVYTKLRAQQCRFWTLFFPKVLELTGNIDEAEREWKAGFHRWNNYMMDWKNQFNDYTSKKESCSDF
# Chain of Cholinesterase (P81908 whole entry): as above
# Chain of Acetylcholinesterase (O42275 whole entry): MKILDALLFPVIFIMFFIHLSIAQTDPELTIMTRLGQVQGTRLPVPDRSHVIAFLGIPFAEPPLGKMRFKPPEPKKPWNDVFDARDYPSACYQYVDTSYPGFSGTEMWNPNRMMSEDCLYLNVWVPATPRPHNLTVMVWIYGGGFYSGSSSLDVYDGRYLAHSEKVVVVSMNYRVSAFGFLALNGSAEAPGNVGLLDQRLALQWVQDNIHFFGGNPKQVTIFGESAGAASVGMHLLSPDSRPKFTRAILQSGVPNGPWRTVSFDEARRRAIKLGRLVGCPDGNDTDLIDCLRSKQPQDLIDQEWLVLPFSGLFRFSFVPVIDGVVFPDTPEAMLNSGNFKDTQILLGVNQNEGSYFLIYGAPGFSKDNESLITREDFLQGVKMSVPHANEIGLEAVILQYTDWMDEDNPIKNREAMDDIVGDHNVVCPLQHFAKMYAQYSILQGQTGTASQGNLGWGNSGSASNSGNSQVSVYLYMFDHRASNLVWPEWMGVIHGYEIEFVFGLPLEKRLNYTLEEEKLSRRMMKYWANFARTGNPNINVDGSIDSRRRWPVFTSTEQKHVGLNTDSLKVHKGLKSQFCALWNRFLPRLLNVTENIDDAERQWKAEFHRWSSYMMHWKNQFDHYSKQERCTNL
# Chain of Acetylcholinesterase (Electrophorus electricus) (O42275 24-633 limits assumed): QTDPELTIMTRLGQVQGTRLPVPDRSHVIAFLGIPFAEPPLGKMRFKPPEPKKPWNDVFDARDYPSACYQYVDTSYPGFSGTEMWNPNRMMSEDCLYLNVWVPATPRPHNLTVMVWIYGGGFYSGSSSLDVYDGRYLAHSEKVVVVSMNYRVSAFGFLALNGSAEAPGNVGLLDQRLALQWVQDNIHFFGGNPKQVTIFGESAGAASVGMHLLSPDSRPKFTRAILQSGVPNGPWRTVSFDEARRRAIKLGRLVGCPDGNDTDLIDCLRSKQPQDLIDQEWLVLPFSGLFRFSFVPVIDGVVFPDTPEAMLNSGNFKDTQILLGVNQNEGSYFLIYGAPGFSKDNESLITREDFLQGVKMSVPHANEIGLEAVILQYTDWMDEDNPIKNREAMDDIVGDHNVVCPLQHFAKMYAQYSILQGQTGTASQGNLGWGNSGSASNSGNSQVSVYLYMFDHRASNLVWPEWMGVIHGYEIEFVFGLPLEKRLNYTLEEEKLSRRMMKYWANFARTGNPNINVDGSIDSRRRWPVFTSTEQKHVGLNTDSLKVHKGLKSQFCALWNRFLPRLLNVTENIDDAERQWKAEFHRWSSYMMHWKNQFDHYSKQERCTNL
Compound,inhibition [1],IC50 (Cholinesterase),IC50 (Acetylcholinesterase),inhibition [2],inhibition [3]
Cc1ccc(CN(C(=O)/C=C/C(=O)N(Cc2ccc(C)cc2)c2ccc(I)cc2)c2ccc(I)cc2)cc1,Active,24.6 µM,17.7 µM,–,–
c1ccc(CNc2ccccc2)cc1 [N-BENZYLANILINE],Active,> 100 µM,13 µM,–,–
CCOc1ccc(NCc2ccc(C)cc2)cc1,Active,4.07 µM,> 100 µM,–,–
O=C(/C=C/C(=O)N(Cc1ccccc1)c1ccccc1)N(Cc1ccccc1)c1ccccc1,Active,52.4 µM,11.8 µM,–,–
Cc1ccc(CN(C(=O)/C=C/C(=O)N(Cc2ccc(C)cc2)c2ccc(C)cc2)c2ccc(C)cc2)cc1,Active,54.8 µM,43.1 µM,–,–
Cc1ccc(NCc2ccccc2)cc1 [N-BENZYL-4-METHYLANILINE],Active,> 100 µM,> 100 µM,–,–
Cc1ccc(CN(C(=O)/C=C/C(=O)N(Cc2ccc(C)cc2)c2ccc(F)cc2)c2ccc(F)cc2)cc1,Active,56.6 µM,23.9 µM,–,–
COc1ccc(N(Cc2ccc(C)cc2)C(=O)/C=C/C(=O)N(Cc2ccc(C)cc2)c2ccc(OC)cc2)cc1,Active,41 µM,11.2 µM,–,–
O=C(/C=C/C(=O)N(Cc1ccccc1)c1ccc(Br)cc1)N(Cc1ccccc1)c1ccc(Br)cc1,Active,16.5 µM,8.06 µM,Active,Active
Cc1ccc(CN(C(=O)/C=C/C(=O)N(Cc2ccc(C)cc2)c2ccc(Br)cc2)c2ccc(Br)cc2)cc1,Active,23.1 µM,0.14 µM,Active,Active
Cc1ccc(CNc2ccc(C)cc2)cc1,Active,> 100 µM,> 100 µM,–,–
O=C(/C=C/C(=O)N(Cc1ccccc1)c1ccc(I)cc1)N(Cc1ccccc1)c1ccc(I)cc1,Active,23.3 µM,0.97 µM,–,–
COc1ccc(NCc2ccc(C)cc2)cc1,Active,> 100 µM,1.33 µM,–,–
Cc1ccc(CNc2ccc(F)cc2)cc1,Active,> 100 µM,> 100 µM,–,–
Fc1ccc(NCc2ccccc2)cc1,Active,> 100 µM,> 100 µM,–,–
Clc1ccc(NCc2ccccc2)cc1,Active,> 100 µM,> 100 µM,–,–
O=C(/C=C/C(=O)N(Cc1ccccc1)c1ccc(Cl)cc1)N(Cc1ccccc1)c1ccc(Cl)cc1,Active,57.7 µM,2.53 µM,–,–

Compound,inhibition [1],IC50 (Cholinesterase),IC50 (Acetylcholinesterase),inhibition [2],inhibition [3]
Cc1ccc(CN(C(=O)/C=C/C(=O)N(Cc2ccc(C)cc2)c2ccc(Cl)cc2)c2ccc(Cl)cc2)cc1,Active,45.6 µM,2.42 µM,–,–
O=C(/C=C/C(=O)N(Cc1ccccc1)c1ccc(F)cc1)N(Cc1ccccc1)c1ccc(F)cc1,Active,89.5 µM,4.5 µM,–,–
CCc1ccc(NCc2ccc(C)cc2)cc1,Active,> 100 µM,> 100 µM,–,–
CCOc1ccc(N(Cc2ccccc2)C(=O)/C=C/C(=O)N(Cc2ccccc2)c2ccc(OCC)cc2)cc1,Active,44 µM,35.9 µM,–,–
Cc1ccc(CNc2ccc(Cl)cc2)cc1,Active,> 100 µM,> 100 µM,–,–
COc1ccc(N(Cc2ccccc2)C(=O)/C=C/C(=O)N(Cc2ccccc2)c2ccc(OC)cc2)cc1,Active,43.6 µM,13.9 µM,–,–
CCOc1ccc(NCc2ccccc2)cc1,Active,> 100 µM,> 100 µM,–,–
CCc1ccc(N(Cc2ccc(C)cc2)C(=O)/C=C/C(=O)N(Cc2ccc(C)cc2)c2ccc(CC)cc2)cc1,Active,44.7 µM,29.4 µM,–,–
Cc1ccc(N(Cc2ccccc2)C(=O)/C=C/C(=O)N(Cc2ccccc2)c2ccc(C)cc2)cc1,Active,26.3 µM,12.5 µM,–,–
CCc1ccc(NCc2ccccc2)cc1,Active,> 100 µM,> 100 µM,–,–
CCOc1ccc(N(Cc2ccc(C)cc2)C(=O)/C=C/C(=O)N(Cc2ccc(C)cc2)c2ccc(OCC)cc2)cc1,Active,> 100 µM,2.23 µM,–,–
Cc1ccc(CNc2ccc(Br)cc2)cc1,Active,> 100 µM,> 100 µM,–,–
Ic1ccc(NCc2ccccc2)cc1,Active,> 100 µM,> 100 µM,–,–
Cc1ccc(CNc2ccc(I)cc2)cc1,Active,> 100 µM,> 100 µM,–,–
Brc1ccc(NCc2ccccc2)cc1,Active,> 100 µM,> 100 µM,–,–
CCc1ccc(N(Cc2ccccc2)C(=O)/C=C/C(=O)N(Cc2ccccc2)c2ccc(CC)cc2)cc1,Active,49.3 µM,32.2 µM,–,–
